Assay results taken from US20210195905A1, “NATURAL COMPLEX PRESERVATIVE AGENT FOR GRAIN OR GRAIN PRODUCT” (BST Inc., priority 2019, published 2021).

Experiment: DPPH radical scavenging (antioxidant activity)
Format: biochemical
Conditions: 0.2 mM DPPH, 30 minutes in the dark, absorbance 517 nm

| Structure (SMILES) | concentration for 50% scavenging of radical (SC50) [µg/mL] |
| --- | --- |
| COc1ccc(O)c(C(C)(C)C)c1 [BHA, Butylated Hydroxy Anisole] | 58.83 |
| O=C1O[C@H]([C@@H](O)CO)C(O)=C1O [L-ascorbic acid] | 49.95 |
